Consider nine compounds from article PMC6411103, “TAK-071, a muscarinic M1 receptor positive allosteric modulator, attenuates scopolamine-induced quantitative electroencephalogram power spectral changes in cynomolgus monkeys” (PLoS ONE, 2019).

On the set-up of data set [1]: method as in PMID 29563325. The following applies: cited from earlier work.
Data set [2] deals with cynomolgus monkeys. Put plainly: qEEG power spectra after treatment with drug alone (radio-telemetry EEG). It counts as in vivo, cynomolgus monkeys (Macaca fascicularis). Here is the method:
(§1) Implant surgery was carried out at Hamri Company Limited (Ibaraki, Japan). Briefly, under isoflurane anesthesia (1–5%, Pfizer Japan Inc., Tokyo, Japan), male cynomolgus monkeys (3–5 years old, Hamri Co., Ltd., Ibaraki, Japan) were surgically implanted with radio-telemetry transmitters (TL10M3-D70-EEE, Data Sciences International Inc., St. Paul, MN). EEG leads were stereotaxically positioned in the parietal area and secured to the cranium with stainless-steel screws in contact with the dura. […] Bilateral electromyography (EMG) leads were implanted in the back cervical muscles. After surgery, each monkey was administered penicillin (100,000 units/animal, i.m., Meiji Seika Pharma Co., Ltd., Tokyo, Japan), buprenorphine (0.02 mg/kg, i.m., Otsuka Pharmaceutical Co., Ltd., Tokyo, Japan), and prednisolone (1 mg/kg, subcutaneously [s.c.], Kyoritsu Seiyaku Co., Ltd., Tokyo, Japan) daily for one week.
(§2) TAK-071, 4-fluoro-2-[(3S,4S)-4-hydroxytetrahydro-2H-pyran-3-yl]-5-methyl-6-[4-(1H-pyrazol-1-yl)benzyl]-2,3-dihydro-1H-isoindol-1-one, was synthesized by Takeda Pharmaceutical Company Limited (Kanagawa, Japan). Donepezil hydrochloride and xanomeline oxalate were purchased from Mega Fine Pharma (P) Limited (Mumbai, India) and Metina AB (Lund, Sweden), respectively. […] TAK-071 and donepezil hydrochloride were suspended in 0.5% (w/v) methylcellulose in distilled water and the volume of administration was 2 mL/kg orally (p.o.). […] The doses of compounds correspond to their salt forms. The administration was scheduled according to a 3×3 cross-over design.
(§3) After at least a 1-month recovery period in their home cages, the monkeys were habituated to the recording chamber (acrylic cage, 60 × 55 × 75 [cm^3 width × depth × height]) located in a soundproof, electrically shielded room. Cortical EEG, EMG, and EOG signals were recorded at a sampling rate of 500 Hz using Dataquest ART software (Data Sciences International, New Brighton, MN). The behavioral and postural changes of the animals were observed using a video camera continuously throughout the experiment. The recordings were performed between 9 a.m. and 4 p.m..
(§4) EEG data were analyzed off-line using SleepSign (KISSEI COMTEC Co., Ltd., Nagano, Japan). Digitized EEG signals were high-pass filtered with a 0.75-Hz filter. Spectral power densities for each frequency band were calculated by fast Fourier transform in consecutive 10-s epochs. Epochs containing abnormal EEG, defined by excessive amplitude (> 500 μV), were omitted from data analysis. For analysis of temporal changes in a specific spectral band (1–4 Hz for delta, 4–8 Hz for theta, 8–12 Hz for alpha, 12–30 Hz for beta, 30–80 Hz for gamma), the EEG power of each spectral band was calculated every 15 min. For each animal, the qEEG spectral analyses were performed from 30 to 240 min after treatment because oral and subcutaneous administration of drugs to monkeys can affect the qEEG power spectra. Data obtained in the post-drug period were normalized with those obtained in the baseline period and were calculated as the area under the curve (AUC) between 30 and 210 min after drug administration for quantitative analyses.

A further data set deals with rats. Details: method as in PMID 30089885. Particulars: TAK-071 0.3 mg/kg; cited from earlier work.
Details of data set [3]: method as in PMID 30089885. The following applies: rats, TAK-071 0.3 mg/kg; cited from earlier work.
Data set [4] has as its system cynomolgus monkeys. In words: scopolamine-induced qEEG spectral changes (scopolamine challenge paradigm). In kind it is in vivo, cynomolgus monkeys (Macaca fascicularis). On the procedure:
as §1, §2, §3, §4

In another data set the test system is M1R. Details: method as in PMID 30089885. Particulars: previous study; cited from earlier work.
The test system of a further data set is freely moving rats. Details: method as in PMID 25181033, PMID 26901596. Particulars: cited from earlier work.
Data set [5] concerns monkeys. Particulars: cited from earlier work.
Data set [6] relates to monkeys. The following applies: xanomeline 1 mg/kg subcutaneous; cited from earlier work.
Data set [7] deals with monkeys. The arrangement: method as in PMID 17657478, PMID 25491927. The following applies: scopolamine 20–50 μg/kg; cited from earlier work.
The test system of a further data set is healthy subjects. The following applies: healthy subjects after scopolamine treatment; cited from earlier work.
The test system of another data set is patients with AD. Details: method as in PMID 14626697. Particulars: cited from earlier work.
The next data set deals with healthy young volunteers. Details: method as in PMID 1375552. Particulars: cited from earlier work.
On the set-up of data set [8]: method as in PMID 26116126. Particulars: direct radiolabeling; cited from earlier work.
[9] abbreviates: TAK-071 3 mg/kg p.o. simultaneously with scopolamine 25 μg/kg s.c., P ≤ 0.05.
Setting [10] is: xanomeline 1 mg/kg s.c. simultaneously with scopolamine 25 μg/kg s.c., not statistically significant.
[11] abbreviates: donepezil alone, 0.3 and 3 mg/kg p.o.
[12] abbreviates: donepezil 3 mg/kg p.o. simultaneously with scopolamine 25 μg/kg s.c.

The structures appear in SMILES notation. Structures can show the parent of a compound that is named as a salt. Where two headings read alike, the source gives them in different places.

As for `Cc1ccc(Cc2cc3c(=O)n([C@H]4CCCC[C@@H]4O)cnc3c3ccccc23)cn1` [MK-7622], in data set [1], the alpha power band entry is “reductions” and the theta power band result was “reductions”.
With `Cc1c(Cc2ccc(-n3cccn3)cc2)cc2c(c1F)CN([C@H]1COCC[C@@H]1O)C2=O` [TAK-071, 4-fluoro-2-[(3S,4S)-4-hydroxytetrahydro-2H-pyran-3-yl]-5-methyl-6-[4-(1H-pyrazol-1-yl)benzyl]-2,3-dihydro-1H-isoindol-1-one], the “theta power band of qEEG spectra” value in the data set on cynomolgus monkeys [2] (TAK-071 alone, 1 mg/kg p.o., P ≤ 0.05 vs vehicle) is given as “significantly decreased”. Also, the “delta power band of qEEG spectra” value in the data set with cynomolgus monkeys [2] (TAK-071 alone, 0.3–3 mg/kg p.o.) is “did not change”. Besides, the “alpha power band of qEEG spectra” value with cynomolgus monkeys [2] (TAK-071 alone, 1 and 3 mg/kg p.o., P ≤ 0.05 vs vehicle) is recorded as “significantly decreased”. Besides, the scopolamine-induced cognitive deficits result in the data set with rats was “significantly ameliorated”. In addition, the maximum plasma concentration in data set [3] was 232 ng/mL. Also, in the data set on cynomolgus monkeys [4] (TAK-071 1 mg/kg p.o. simultaneously with scopolamine 25 μg/kg s.c., P ≤ 0.05), the “scopolamine-induced increase in alpha power band” value is on record as “significantly reduced”. In the data set with cynomolgus monkeys [4] (setting [9]), the “scopolamine-induced increase in alpha power band” value is listed as “significantly suppressed” and the “scopolamine-induced increase in theta power band” value is reported as “significantly suppressed”. Moreover, the “scopolamine-induced increase in delta power band” value in the data set with cynomolgus monkeys [4] (TAK-071 1 and 3 mg/kg p.o. simultaneously with scopolamine 25 μg/kg s.c., no significant effect) was “a decreasing trend was observed”. Also, in the data set on M1R, the “selectivity as M1 PAM” value is given as “highly selective M1 PAM”.
On to `CCN(C)C(=O)Oc1cccc([C@H](C)N(C)C)c1` [rivastigmine], for which the “delta power band after treatment with scopolamine” value (shortened to “delta power band after treatment”) in the data set with freely moving rats is recorded as “decreased”.
With `CCCCCCOc1nsnc1C1=CCCN(C)C1` [xanomeline, xanomeline oxalate], the scopolamine-induced cognitive deficits entry with monkeys [5] (intramuscular administration of 0.1 mg/kg xanomeline) is given as “improved”. In the data set with cynomolgus monkeys [4] (setting [10]), the “scopolamine-induced increase in alpha power band” value is reported as “showed a trend to suppress”, the “scopolamine-induced increase in delta power band” value is recorded as “showed a trend to suppress” and the “scopolamine-induced increase in theta power band” value is given as “showed a trend to suppress”. Moreover, the “antipsychotic-like activity and sedative effects” value with monkeys [6] is given as “exhibited antipsychotic-like activity without inducing sedative effects”.
As for `CN1[C@@H]2C[C@@H](OC(=O)[C@H](CO)c3ccccc3)C[C@H]1[C@@H]1O[C@@H]12` [scopolamine, Scopolamine hydrobromide], the “alpha, theta, and delta power bands, dose-dependency” value in the data set with cynomolgus monkeys [2] (scopolamine 25, 50, or 100 μg/kg s.c.) is “increased alpha, theta, and delta power bands in a dose-dependent manner”. Besides, in the data set on cynomolgus monkeys [2] (scopolamine 25-100 μg/kg s.c.), the “persistence of effects in all power bands after treatment” value is listed as 240 min. Besides, in the data set on monkeys [7], the cognitive impairment entry is listed as “moderately caused cognitive impairment”. For the same compound, in the data set with healthy subjects, the “alpha power band, resting state” value was “decrease” and the “delta power band, resting state” value was “increase”.
On to `COc1cc2c(cc1OC)C(=O)C(CC1CCN(Cc3ccccc3)CC1)C2` (centres unmarked) [donepezil, Donepezil hydrochloride], for which the “alpha power band of qEEG spectra” value with cynomolgus monkeys [2] (donepezil alone, 0.3 mg/kg p.o., dose-dependency not observed) is given as “increased”. In addition, in the data set on cynomolgus monkeys [2] (setting [11]), the “delta power band of qEEG spectra” value was “did not affect” and the “theta power band of qEEG spectra” value is recorded as “did not affect”. Further, the “delta power band after treatment” value in the data set on freely moving rats is reported as “decreased”. Further, in the data set with patients with AD, the alpha activity entry is on record as “increased”, the beta activity result is given as “increased” and the delta activity entry is “significantly decreased”. Besides, the scopolamine-induced cognitive deficits entry in the data set with monkeys [5] (oral administration of 3 mg/kg donepezil) is reported as “improved”. Also, the scopolamine-induced cognitive deficits result in the data set on monkeys [5] (oral donepezil 1–3 mg/kg) is given as “significantly attenuated”. In the data set with cynomolgus monkeys [4] (setting [12]), the “scopolamine-induced increase in alpha power band” value is reported as “tended to be attenuated” and the “scopolamine-induced increase in theta power band” value is “tended to be attenuated”. The “scopolamine-induced increase in delta power band” value with cynomolgus monkeys [4] (donepezil 3 mg/kg p.o. simultaneously with scopolamine 25 μg/kg s.c., P ≤ 0.05 vs scopolamine) is “significantly suppressed”.
In the case of `Nc1c2c(nc3ccccc13)CCCC2` [tacrine], the “delta power band after treatment” value in the data set on freely moving rats was “decreased”.
Take `COc1ccc2c3c1O[C@H]1C[C@@H](O)C=C[C@@]31CCN(C)C2` [galantamine]: in the data set with healthy young volunteers, the theta power band entry is given as “did not change”.
As for `Cc1cc(F)c2[nH]c(=O)n(C3CCN(C4CCOCC4)CC3)c2c1` [GSK1034702], in data set [8], the “brain uptake by PET” value is “good brain uptake”.
